The subject of assay [1] is DNA methylation of 850 000 CpGs in the epidermis. Nature of the assay: in vivo study: epidermal DNA methylation by EPIC technology after cream application and UV irradiation. The following applies: verum cream on lower back for two weeks, UV 0.8 MED on three consecutive days, compared to unirradiated control, n=32, FIG. 2. The procedure:
To this end, test subjects (n=32) applied cream comprising a vehicle and a verum including dihydromyricetin to the lower back for two weeks. After the two-week treatment period, the test subjects were irradiated with UV (0.8 MED) on three consecutive days in order to imitate an age-relevant environmental influence. 24 hours after the final UV irradiation, suction blisters were produced and the epidermis was harvested. The DNA was isolated from the epidermis and the state of the DNA methylation of 850 000 CpGs was determined by means of EPIC technology from Illumina.

The test system of assay [2] is expression of 45 genes in the epidermis. Nature of the assay: in vivo study: gene expression in epidermis (TaqMan) after eight weeks of cream application. The following applies: verum cream on inner forearm for eight weeks, 19 test subjects (50-65 years), 45 genes analyzed, ΔΔCt method, FIG. 3. The procedure:
To this end, 19 test subjects (50-65 years) applied cream comprising a vehicle and a verum including dihydromyricetin to the inner forearm over a period of eight weeks. Suction blisters were then produced and the epidermis was harvested. The RNA was isolated from the epidermis samples (RNeasy Fibrous Tissue Kit, Qiagen, Hilden) and the expression of 45 genes (+3 endogenous control genes) was analyzed using the TaqMan system (7900HT Fast Real-Time PCR System, Applied Biosystems). […] The changes in expression were calculated using the ΔΔCt method.
Background: In qPCR the cycle at which signal appears reflects the starting amount.

The target in another assay is T1, recombinant DNMT1 enzyme (Homo sapiens, UniProt P26358).
T1 construct: purchased Active Motif, Belgium
Nature of the assay: cell-free DNMT Activity/Inhibition Assay (Active Motif). The class given is biochemical. The following applies: manufacturer's standard protocol, FIG. 1. From the text:
Here, the assay manufacturer's standard protocol was used.

T1 sequence (P26358 whole entry): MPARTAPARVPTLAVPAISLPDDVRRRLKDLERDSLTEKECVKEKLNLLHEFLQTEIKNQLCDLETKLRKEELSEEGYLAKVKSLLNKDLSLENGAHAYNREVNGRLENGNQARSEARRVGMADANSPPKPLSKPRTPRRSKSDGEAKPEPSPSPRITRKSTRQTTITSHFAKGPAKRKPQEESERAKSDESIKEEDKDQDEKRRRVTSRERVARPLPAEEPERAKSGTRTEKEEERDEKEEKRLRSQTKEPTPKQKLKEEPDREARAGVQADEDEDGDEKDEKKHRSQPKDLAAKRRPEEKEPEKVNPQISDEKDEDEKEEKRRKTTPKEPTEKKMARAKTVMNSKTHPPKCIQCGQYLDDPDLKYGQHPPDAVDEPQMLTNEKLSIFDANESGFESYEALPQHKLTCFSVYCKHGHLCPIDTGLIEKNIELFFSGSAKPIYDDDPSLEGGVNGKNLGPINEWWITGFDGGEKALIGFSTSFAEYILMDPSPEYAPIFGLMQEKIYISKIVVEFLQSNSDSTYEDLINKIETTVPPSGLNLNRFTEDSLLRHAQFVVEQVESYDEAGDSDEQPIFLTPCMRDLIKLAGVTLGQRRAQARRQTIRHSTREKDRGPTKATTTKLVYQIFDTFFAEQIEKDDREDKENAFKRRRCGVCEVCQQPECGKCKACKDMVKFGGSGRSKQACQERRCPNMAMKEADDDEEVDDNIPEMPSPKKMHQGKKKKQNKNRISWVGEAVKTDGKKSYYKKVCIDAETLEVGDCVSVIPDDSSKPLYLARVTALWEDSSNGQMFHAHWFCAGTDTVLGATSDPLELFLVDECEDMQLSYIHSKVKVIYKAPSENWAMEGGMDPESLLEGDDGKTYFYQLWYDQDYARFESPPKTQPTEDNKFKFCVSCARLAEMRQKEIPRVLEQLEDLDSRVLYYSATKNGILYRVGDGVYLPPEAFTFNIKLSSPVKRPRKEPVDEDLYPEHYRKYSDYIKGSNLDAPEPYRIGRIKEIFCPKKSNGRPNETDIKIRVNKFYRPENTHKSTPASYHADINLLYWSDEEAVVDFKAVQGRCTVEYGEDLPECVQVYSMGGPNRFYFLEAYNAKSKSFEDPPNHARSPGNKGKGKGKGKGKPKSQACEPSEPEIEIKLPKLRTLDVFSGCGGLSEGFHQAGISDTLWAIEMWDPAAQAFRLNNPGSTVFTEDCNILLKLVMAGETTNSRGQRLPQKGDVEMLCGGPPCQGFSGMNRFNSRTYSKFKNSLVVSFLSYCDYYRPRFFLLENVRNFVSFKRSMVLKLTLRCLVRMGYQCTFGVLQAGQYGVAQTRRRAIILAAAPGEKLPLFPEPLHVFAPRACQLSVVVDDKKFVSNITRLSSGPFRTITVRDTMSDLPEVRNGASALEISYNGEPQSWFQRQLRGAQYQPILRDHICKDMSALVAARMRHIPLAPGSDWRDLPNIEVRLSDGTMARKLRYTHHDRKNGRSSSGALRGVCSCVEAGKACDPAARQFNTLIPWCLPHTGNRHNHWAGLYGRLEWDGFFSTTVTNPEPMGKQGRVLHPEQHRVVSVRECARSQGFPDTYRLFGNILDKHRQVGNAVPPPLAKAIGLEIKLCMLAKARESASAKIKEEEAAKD

For `O=C1c2c(O)cc(O)cc2O[C@H](c2cc(O)c(O)c(O)c2)[C@H]1O` [dihydromyricetin, (2R,3R)-3,5,7-trihydroxy-2-(3,4,5-trihydroxyphenyl)chroman-4-one], in assay [1], the “methylation changes at CpGs at which the vehicle-treated area did not show any significant methylation changes” value is on record as 16 389 CpGs. Also, the “genes with significant increase in expression in comparison to vehicle-treated control samples” value in assay [2] is on record as 16 genes. The “inhibition of the recombinant DNMT1 enzyme” value at recombinant DNMT1 enzyme is recorded as “concentration-dependent inhibition”.

The values are drawn from US20230414555A1, “USE OF DIHYDROMYRICETIN AS EPIGENETIC ACTIVE INGREDIENT FOR COSMETIC OR DERMATOLOGICAL SKIN CARE” (BEIERSDORF AG, priority 2020, published 2023).
